From patent US20150368617A1, “METHOD FOR FORMING ENDOTHELIAL CELLS” (Korea Advanced Institute of Science and Technology (KAIST), priority 2012, published 2015)
Entries after “also recorded” stand apart in the source; their conditions may differ.

Assays:
Type in all cases: cell-based, mouse
Flk1+ MPCs [1] = experiment: EC colony assay; conditions: 36 hrs; VEGF-A 50 ng/ml, Y27632 10 μM
Description: The Flk1+ MPCs were plated onto Matrigel-coated plate at a density of 4,000 cells/cm^2, and cultured in differentiation medium supplemented with VEGF-A165 (50 ng/ml) and Y27632 (10┌M). At 36 hrs later, the number of CD144+ EC colonies was counted. Clustering of >5 CD144+ ECs was regarded as one EC colony.

Flk1+ MPCs [2] = experiment: Western blotting of signaling proteins in Flk1+ MPCs
Description: FIGS. 10A-10B. PI3-kinase/Akt signaling and MyPT-MLC signaling are involved in ROCK suppression-induced expansion of ECs. Flk1+ MPCs were incubated with indicated agents for 2 days, and analyses were performed on day 6.5. (FIG. 10A) Immunoblotting for pPTEN, PTEN, pAkt, Akt, pERK, ERK, pMyPT, MyPT, pMLC, MLC, ┌ SMA and GAPDH in Flk1+ MPCs treated with PBS (Control), Y27632 (10┌ M), VEGF-A (50 ng/ml; VA), or VA plus Y27632. The Flk1+ MPCs were cultured for 12 hrs, starved for 6 hrs with or without Y27632, and then treated with VEGF-A (50 ng/ml) for 10 min. Results from four independent trials were similar to each other. (FIG. 10B) Quantitative analyses of phosphorylations of AKT, PTEN, MyPT and MLC. Signal intensities were quantitatively evaluated using Image J software. Intensity of phosphorylated/total form of each protein in Control is regarded as 1 and relative intensities are expressed as fold. The mean of relative values from four independent experiments are represented. *p<0.01 versus Control. ^#p<0.01 versus VEGF-A. N.D represents non-detected.
Cell lysates were separated by SDS-PAGE gel and transferred to PVDF membranes for Western Blot analysis. After blocking with 5% skim milk, the membranes were first incubated with primary antibodies in blocking buffer overnight at 4┌ C, then with HRP-conjugated secondary antibodies for 1 hr at RT. The following primary antibodies were used: anti-RhoA (mouse monoclonal, Cytoskeleton Inc.), anti-ROCK1 (mouse monoclonal, Santa Cruz), anti-ROCK2 (rabbit polyclonal, Santa Cruz), anti-┌-tubulin (mouse monoclonal, Santa Cruz), anti-phospho-PTEN (Ser380/Thr382/383)(clone 44A7, Cell Signaling), anti-PTEN (clone 138G6, Cell Signaling), anti-phospho-Akt (Ser473)(clone 193H12, Cell Signaling), anti-Akt (rabbit polyclonal, Cell Signaling), anti-phospho-ERK (Thr202/Tyr204) (clone 20G11, Cell Signaling), anti-ERK (rabbit monoclonal, Cell Signaling), anti-phospho-MyPT (Thr696) (rabbit polyclonal, Cell Signaling), anti-MyPT (rabbit polyclonal, Cell Signaling), anti-phospho-MLC (Thr18/Ser19) (rabbit polyclonal, Cell Signaling), anti-MLC (rabbit polyclonal, Cell Signaling), anti-┌ SMA (rabbit polyclonal, Novus Biologicals), anti-GAPDH (rabbit polyclonal, Santa Cruz), anti-phospho-VEGFR2 (Tyr1175) (clone 19A10, Cell Signaling), and anti-VEGFR2 (clone 55B11, Cell Signaling). The secondary antibodies used were rabbit anti-mouse IgG-HRP (Santa Cruz) and goat anti-rabbit IgG-HRP (Santa Cruz). Signals were developed with enhanced chemiluminescence HRP substrate (Millipore) and detected using LAS-3000 mini (Fuji film).

ICAM2+ ECs = experiment: Cell cycle FACS analysis in ICAM2+ ECs; conditions: 12 hrs after plating
Description: FIGS. 15A-15D. ROCK suppression continuously promotes the expansion of ECs. ICAM2+ ECs were further incubated with PBS (Control), Y27632 (10┌ M), VEGF-A (50 ng/ml; VA) or Y27632 (10┌ M) plus VEGF-A (50 ng/ml) for 2 days, and analyses were performed at day 8.5. (FIG. 15A) Representative FACS analysis showing cell cycle in ICAM2+ ECs at 12 hrs. (FIG. 15B) % of ICAM2+ ECs under each phase of cell cycle at 12 hrs. Each group, n=3. *p<0.01 versus Control; ^#p<0.01 versus VEGF-A. (FIG. 15C) Representative FACS analysis of Annexin V+/PI− apoptotic ECs. (FIG. 15D) % of Annexin V+/PI− ECs. Each group, n=3. *p<0.01 versus Control.
Apoptosis assay was performed as previously described. To determine the cell cycle, BrdU/7-AAD cell cycle analysis was performed according to the manufacturer's instructions (BD Pharmingen™). Briefly, cells were incubated with BrdU (1 mM) for 1 hr, dissociated with dissociation buffer, and stained with anti-CD144 antibody. The cells were then fixed, permeabilized, and fixed once more, followed by 1 hr incubation with DNase I (200 U) at 37┌ C. After incubation with FITC-conjugated anti-BrdU antibody for 20 min at RT, the cells were stained with 7-AAD. The cells were analyzed by FACS Aria II and the data were analyzed using FlowJo software.

[3] = Y27632 10 μM, VEGF-A 50 ng/ml for 10 min
[4] = regardless of VEGF-A stimulation

Structure (SMILES): C[C@@H](N)[C@H]1CC[C@H](C(=O)Nc2ccncc2)CC1 [Y27632]
- number of EC colonies and cell number in each colony (Flk1+ MPCs [1]): increased
- phosphorylation of Akt (Ser473) (Flk1+ MPCs [2]; [3]): phosphorylated
- phosphorylation of ERK (Flk1+ MPCs [2]; [3]): but not ERK
- phosphorylation of PTEN (Ser380, Thr382 and Thr383) (Flk1+ MPCs [2]; [3]): phosphorylated
- phosphorylation of MLC (Flk1+ MPCs [2]; [4]): almost completely reduced; also recorded: inhibits
- phosphorylation of MyPT (Flk1+ MPCs [2]; [4]): almost completely reduced
- protein levels of αSMA (Flk1+ MPCs [2]; [4]): reduced
- increase of percentage of cells in S phase compared to control (ICAM2+ ECs): ~1.8 fold
